tested on: TLR8, TLR7; assay: TLR agonism classification (TLR8 versus TLR7 agonist); type: cell-based; conditions: classification in words; agonist of TLR8 but not TLR7 = TLR8-selective; no numeric data given
Excerpt: The TLR agonism for a particular compound may be assessed in any suitable manner. […] The assay used to assess the agonism of a compound with respect to one TLR may be the same as, or a different than, the assay used to assess the agonism of the compound with respect to another TLR.
Similarly, a compound may be identified as not acting as a TLR7 agonist (i.e., a TLR7 non-agonist) if, when used to perform an assay designed to detect TLR7-mediated biological activity, the compound fails to elicit a threshold increase in TLR7-mediated biological activity. […] An assay may or may not be performed in conjunction with the appropriate control.
Assays employing HEK293 cells transfected with an expressible TLR structural gene may use a threshold of, for example, at least a three-fold increase in a TLR-mediated biological activity (e.g., NFKB activation) when the compound is provided at a concentration of, for example, from about 1 μM to about 30 μM for identifying a compound as an agonist of the TLR transfected into the cell. However, different thresholds and/or different concentration ranges may be suitable in certain circumstances. Also, different thresholds may be appropriate for different assays.

| SMILES | TLR agonist selectivity (TLR7/TLR8) as stated for the compound |
| --- | --- |
| CCOCc1nc2c(N)nc3ccccc3c2n1CCNS(C)(=O)=O [Compound 6, N-{2-[4-amino-2-(ethoxymethyl)-1H-imidazo[4,5-c]quinolin-1-yl]ethyl}methanesulfonamide] | TLR8-selective agonist |
| CCOCc1nc2c(N)nc3c(c2n1CC(C)(C)O)CCCC3 [Compound 2, 4-amino-2-(ethoxymethyl)-α,α-dimethyl-6,7,8,9-tetrahydro-1H-imidazo[4,5-c]quinoline-1-ethanol] | TLR7/8 agonist |
| CCCCCCCCCCCCCCCC(=O)NCCOCCn1c(CCOC)nc2c(N)nc3ccccc3c21 [Compound 5, N-(2-{2-[4-amino-2-(2-methoxyethyl)-1H-imidazo[4,5-c]quinolin-1-yl]ethoxy}ethyl)hexadecanamide] | TLR8-selective agonist |
| CC(C)Cn1cnc2c(N)nc3ccccc3c21 [Compound 4, 1-(2-methylpropyl)-1H-imidazo[4,5-c]quinolin-4-amine, reference compound] | TLR7-selective agonist |
| CCc1nc2c(N)nc3ccccc3c2n1CCCCNS(C)(=O)=O [Compound 3, N-[4-(4-amino-2-ethyl-1H-imidazo[4,5-c]quinolin-1-yl)butyl]methanesulfonamide] | TLR7-selective agonist |

Reference: patent publication US20050096259A1, “Neutrophil activation by immune response modifier compounds” (3M Innovative Properties Company, priority 2003, published 2005)
